Test results published in patent US12312621B2, “Reprogramming urokinase into an antibody-recruiting anticancer agent” (YALE UNIVERSITY, priority 2011, dated 2025).

Assay: Storage stability of stock solution in water
Format: physicochemical
Protocol: Synthesis of guanidinium 1 Into a flask were added crude peptide 1v (0.120 mmol, 1 equiv), and a mixture of TFA, TiPS, and water (38:1:1, 2 mL, 0.06 M, producing a homogeneous solution). The mixture was stirred in the dark (1.5 h) and diluted with toluene (3 mL). Volatiles were removed under reduced pressure (2×toluene azeotrope). The crude mixture was dissolved in water (2 mL) and washed with EtOAc (2×2 mL). The aqueous phase was purified by semi-preparative RP-HPLC (C18 column, water+0.1% TFA with 15-35% MeCN over 30 min, product isomers elute at 14.5 and 15.4 min) to yield pure guanidinium 1 (58 mg, 0.049 mmol, 41% yield) as a mixture (approximately 1:1) of regioisomers at fluorescein and as a yellow solid. The regioisomeric ratio was measured by ^1H NMR. ^1H NMR signals were assigned by ^1H-^1H COSY.
Synthesis of guanidinium 2 Into a flask were added crude peptide 2g (0.150 mmol, 1 equiv), and a mixture of TFA, TiPS, and water (38:1:1, 2 mL, 0.07 M). The mixture was stirred (1.5 h) and diluted with toluene (3 mL). Volatiles were removed under reduced pressure (2×toluene azeotrope). The crude mixture was dissolved in water (2 mL) and washed with EtOAc (2×2 mL). […]

N=C(N)NCCC[C@H](NC(=O)CNC(=O)[C@@H](N)CCC(=O)NCCCOCCOCCOCCCNc1ccc([N+](=O)[O-])cc1[N+](=O)[O-])C(=O)CCl [compound 2]
stability of stock solution: stable for at least several months
